Measurements as given in patent publication US9232799B2, “N-[(het)arylethyl)] pyrazole(thio)carboxamides and their heterosubstituted analogues” (BAYER INTELLECTUAL PROPERTY GMBH, priority 2010, dated 2016).

Key:
Sphaerotheca fuliginea = experiment: In vivo preventive test on Sphaerotheca fuliginea (cucumber); conditions: 500 ppm of active ingredient, evaluated 7 days after inoculation
Description: One day after this treatment, the plants are inoculated with an aqueous spore suspension of Sphaerotheca fuliginea.

Alternaria solani = experiment: In vivo preventive test on Alternaria solani (tomato); conditions: 500 ppm of active ingredient, evaluated 7 days after inoculation
Description: One day after this treatment, the plants are inoculated with an aqueous spore suspension of Alternaria solani.

Pyrenophora teres = experiment: In vivo preventive test on Pyrenophora teres (barley); conditions: 500 ppm of active ingredient, evaluated 7-9 days after inoculation
Description: One day after this treatment, the plants are inoculated with an aqueous spore suspension of Pyrenophora teres.

aflatoxines production = experiment: microbe, parasite or virus in culture; format: cell-based, Aspergillus parasiticus; conditions: 50 μM
Leptosphaeria nodorum = experiment: In vivo preventive test on Leptosphaeria nodorum (wheat); conditions: 500 ppm of active ingredient, evaluated 7-9 days after inoculation
Description: One day after this treatment, the plants are inoculated with an aqueous spore suspension of Leptosphaeria nodorum.

Fusarium graminearum = experiment: microbe, parasite or virus in culture; format: cell-based; conditions: 50 μM
Botrytis cinerea = experiment: In vivo preventive test on Botrytis cinerea (beans); conditions: preventive, beans, lesion size 2 days after inoculation; for pest or weed control at 500 ppm: Botrytis cinerea, 48 h, read-out: Efficacy
Description: To test for preventive activity, young plants are sprayed with the preparation of active compound. After the spray coating has dried on, 2 small pieces of agar covered with growth of Botrytis cinerea are placed on each leaf.

[1] = logP by HPLC on reversed-phase column (C 18), EEC Directive 79/831 Annex V.A8; format: physicochemical
Protocol: In table 1, the logP values were determined in accordance with EEC Directive 79/831 Annex V.A8 by HPLC (High Performance Liquid Chromatography) on a reversed-phase column (C 18), using the method described below: Temperature: 40° C.; […]

Row | Compound | Efficacy (Sphaerotheca fuliginea) | Efficacy (Alternaria solani) | Efficacy (Pyrenophora teres) | % Inhibition of Aflatoxin at 50 μM (aflatoxines production) | Efficacy (Leptosphaeria nodorum) | % Inhibition of fungal growth at 50 μM (Fusarium graminearum) | Efficacy (Botrytis cinerea; 100 ppm of active ingredient) | Efficacy (Botrytis cinerea; 100 ppm of active ingredient, listed as 1.001) | Efficacy (Botrytis cinerea; 500 ppm of active ingredient) | Efficacy (Botrytis cinerea; 500 ppm of active ingredient, listed as 1.001) | pest or weed control at 500 ppm (Botrytis cinerea; 500 ppm of active ingredient) | logP [1] | Efficacy (Botrytis cinerea; 500 ppm of active ingredient, listed as F-3)
1 | Cn1nc(C(F)F)c(C(=O)N(C2CC2)C2CCCCC2(C)c2ccccc2)c1F (mixture of isomers) [Example 218] | 94% | 70% | 100% | 100% | 95% | 99% |  |  |  |  |  |  | 
2 | Cn1cc(C(=O)N[C@H]2C[C@H]2c2ccc(Cl)cc2)c(C(F)F)n1 [1.001 from WO-2007/134799, N-[(1S,2S-1R′,2R)-2-(4-chlorophenyl)cyclopropyl]-3-(difluoromethyl)-1-methyl-1H-pyrazole-4-carboxamide, reference compound] |  |  |  |  |  |  | 8% | less than 10% | 89% | at least 85% |  |  | 
3 | Cc1nn(C)c(Cl)c1C(=O)NC(C)(C)C(=O)c1ccc2ccccc2c1 [2-1 from WO-2006/016708, 5-chloro-1,3-dimethyl-N-[2-methyl-1-(2-naphthyl)-1-oxopropan-2-yl]-1H-pyrazole-4-carboxamide, reference compound] |  |  |  |  |  |  |  |  |  |  | < 30% |  | 
4 | CC(CN(C(=S)c1c(C(F)F)nn(C)c1F)C1CC1)c1ccccc1 (stereo not drawn) [Example 15] | 100% | 90% | 100% | 100% | 100% | 83% |  |  |  |  |  | 3.92 | 
5 | CC(CN(C(=S)c1c(C(F)F)nn(C)c1Cl)C1CC1)c1ccccc1 (stereo not drawn) [Example 16] |  | 95% | 100% |  | 95% |  |  |  |  |  |  | 4.11 | 
6 | CC(Cc1ccccc1F)N(C(=O)c1c(C(F)F)nn(C)c1F)C1CC1 (stereo not drawn) [Example 19] |  | 100% | 100% | 100% | 70% | 100% |  |  |  |  |  | 3.37 | 
7 | CC(Cc1c(F)cccc1F)N(C(=S)c1c(C(F)F)nn(C)c1F)C1CC1 (stereo not drawn) [Example 28] | 100% | 90% | 100% |  | 95% |  |  |  |  |  |  | 3.94 | 
8 | CC(Cc1ccccc1Cl)NC(=O)c1c(C(F)F)nn(C)c1F (stereo not drawn) [Example 31] | 96% | 100% | 100% | 100% | 70% | 100% |  |  |  |  |  | 2.94 | 
9 | CC(Cc1ccccc1Cl)NC(=S)c1c(C(F)F)nn(C)c1F (stereo not drawn) [Example 37] | 98% | 94% | 100% | 94% |  | 78% |  |  |  |  |  | 3.61 | 
10 | CC(Cc1ccccc1Cl)NC(=S)c1c(C(F)F)nn(C)c1Cl (stereo not drawn) [Example 38] | 85% | 89% | 100% |  |  |  |  |  |  |  |  | 3.72 | 
11 | CC(c1ccccc1Cl)C(C)N(C(=S)c1c(C(F)F)nn(C)c1F)C1CC1 (stereo not drawn) [Example 43] | 100% | 90% | 100% | 100% | 100% | 90% |  |  |  |  |  | 4.72 | 
12 | CC(Cc1ccc(Cl)cc1Cl)NC(=O)c1c(C(F)F)nn(C)c1Cl (stereo not drawn) [Example 68] | 99% | 95% | 100% | 100% |  | 100% |  |  |  |  |  | 3.67 | 
13 | CC(Cc1ccc(Cl)cc1Cl)NC(=S)c1c(C(F)F)nn(C)c1Cl (stereo not drawn) [Example 69] | 95% | 94% |  | 100% |  | 86% |  |  |  |  |  | 4.29 | 
14 | Cn1nc(C(F)F)c(C(=S)NCCc2ccc(Cl)cc2Cl)c1F [Example 71] | 85% | 94% | 100% |  |  |  |  |  |  |  |  | 3.99 | 
15 | COC(c1ccc(Cl)cc1Cl)C1(NC(=O)c2c(C(F)F)nn(C)c2Cl)CC1 (stereo not drawn) [Example 78] | 100% | 100% | 100% | 100% | 80% | 100% |  |  |  |  |  | 3.70 | 
16 | COC(c1ccc(Cl)cc1Cl)C1(NC(=O)c2c(C(F)F)nn(C)c2F)CC1 (stereo not drawn) [Example 79] | 100% | 100% | 100% | 100% | 80% | 98% |  |  |  |  |  | 3.46 | 

Row | Compound | Efficacy (Sphaerotheca fuliginea) | Efficacy (Alternaria solani) | Efficacy (Pyrenophora teres) | % Inhibition of Aflatoxin at 50 μM (aflatoxines production) | Efficacy (Leptosphaeria nodorum) | % Inhibition of fungal growth at 50 μM (Fusarium graminearum) | Efficacy (Botrytis cinerea; 100 ppm of active ingredient) | Efficacy (Botrytis cinerea; 100 ppm of active ingredient, listed as 1.001) | Efficacy (Botrytis cinerea; 500 ppm of active ingredient) | Efficacy (Botrytis cinerea; 500 ppm of active ingredient, listed as 1.001) | pest or weed control at 500 ppm (Botrytis cinerea; 500 ppm of active ingredient) | logP [1] | Efficacy (Botrytis cinerea; 500 ppm of active ingredient, listed as F-3)
17 | Cn1nc(C(F)F)c(C(=O)NCC(C)(C)c2ccc(Cl)cc2Cl)c1F [Example 87] |  | 95% | 94% | 100% | 70% | 94% |  |  |  |  |  | 3.81 | 
18 | CN(CCc1cc(Cl)ccc1Cl)C(=S)c1c(C(F)F)nn(C)c1F [Example 96] |  | 95% | 100% | 100% | 90% | 82% |  |  |  |  |  | 3.87 | 
19 | Cn1nc(C(F)F)c(C(=O)NCC(C)(C)c2cc(Cl)ccc2Cl)c1Cl [Example 101] | 83% | 100% | 70% | 100% |  | 86% |  |  |  |  |  | 3.89 | 
20 | COC(CNC(=S)c1c(C(F)F)nn(C)c1F)c1cc(Cl)cc(Cl)c1 (stereo not drawn) [Example 110] | 75% | 80% | 100% |  |  |  |  |  |  |  |  | 4.19 | 
21 | Cn1nc(C(F)F)c(C(=O)NC(C)(C)Cc2ccc(Oc3ccccc3)cc2)c1F [Example 150] | 100% | 95% | 78% |  |  |  |  |  |  |  |  | 4.19 | 
22 | Cn1nc(C(F)F)c(C(=O)NC(C)(C)Cc2ccc(Oc3ccccc3)cc2)c1Cl [Example 153] | 93% | 95% | 80% |  |  |  |  |  |  |  |  | 4.39 | 
23 | CC(Cc1ccc(Oc2ccccc2)cc1)NC(=S)c1c(C(F)F)nn(C)c1F (stereo not drawn) [Example 156] | 93% | 89% | 100% |  |  |  |  |  |  |  |  | 4.29 | 
24 | Cc1scc(CCNC(=O)c2c(C(F)F)nn(C)c2F)c1C [Example 167] | 90% | 100% | 100% | 100% |  | 100% |  |  |  |  |  | 2.82 | 
25 | CCC(CNC(=O)c1c(C(F)F)nn(C)c1Cl)c1ncc(C(F)(F)F)cc1Cl (stereo not drawn) [Example 193] | 83% | 100% | 100% | 100% |  | 91% |  |  |  |  |  | 3.73 | 
26 | Cn1nc(C(F)F)c(C(=O)NC(C)(C)C(=O)c2ncc(C(F)(F)F)cc2Cl)c1Cl [Example 195] | 91% | 95% | 100% | 100% | 94% | 81% |  |  |  |  |  | 3.39 | 
27 | Cn1nc(C(F)F)c(C(=O)NC2CCCCC2c2ccccc2)c1Cl (stereo not drawn) [Example 215] | 93% | 78% | 100% |  |  |  |  |  |  |  |  | 3.51 | 
28 | Cn1nc(C(F)F)c(C(=O)N(C2CC2)C2CCCCC2c2ccccc2Cl)c1F (stereo not drawn) [Example 216] | 100% | 71% | 95% | 100% |  | 84% |  |  |  |  |  | 4.49 | 
29 | Cn1nc(C(F)F)c(C(=O)NC2CC2c2cccc(F)c2)c1F (stereo not drawn) [Example 222] |  |  | 100% | 99% | 90% | 81% |  |  |  |  |  | 2.59 | 
30 | Cn1nc(C(F)F)c(C(=O)NC2CC2c2ccccc2C(F)(F)F)c1F (stereo not drawn) [Example 225] | 80% | 95% | 100% | 97% |  | 83% |  |  |  |  |  | 3.00 | 
31 | Cn1nc(C(F)F)c(C(=O)N(C[Si](C)(C)c2ccsc2)C2CC2)c1F [Example 248] |  | 94% | 100% | 100% | 94% | 100% |  |  |  |  |  | 3.55 | 
32 | CC(Cc1ccc(Cl)cc1)N(C(=O)c1cn(C)nc1C(F)F)C1CC1 (stereo not drawn) [F-3 from WO-2007/060164, N-[1-(4-chlorophenyl)propan-2-yl]-N-cyclopropyl-3-(difluoromethyl)-1-methyl-1H-pyrazole-4-carboxamide, reference compound] |  |  |  |  |  |  |  |  |  |  | 0% |  | no protection
